Patent US20080050448A1, “ANTIMICROBIAL CONJUGATES” (priority 2006, published 2008)

Key:
[1] = test system: Staphylococcus aureus NCTC 6571; experiment: Lethal photosensitisation of S. aureus by gold nanoparticle-photosensitiser mixtures, white light, viable counting; type: cell-based
Method: Gold nanoparticles (2.0 nm diameter; British Biocell International) in water (15×10^13 particles per ml) were mixed with an equal volume of an aqueous solution of toluidine blue O (40 μM) and left at room temperature for 15 minutes. 100 μl of the gold-TB solution was added to 100 μl of a suspension of Staphylococcus aureus NCTC 6571 in phosphate buffered saline (PBS) and this was irradiated with white light from a fluorescent white lamp for 10 minutes. Controls consisted of:
(i) TB (final concentration=10 μM) and bacteria, irradiated for the same period of time,
(ii) nanogold (diluted 1:1 with water) and bacteria, irradiated for the same period of time,
(iii) bacteria without TB or nanogold, not irradiated (“control”).
After irradiation, the number of surviving bacteria was determined by viable counting. […] Note that the TB concentration and light energy dose used were designed to give sub-optimal kills so that differences in efficacy of the TB and the TB-nanogold could be discerned. Preliminary experiments using 30 minutes light exposure achieved total kills of the bacterial suspensions in both cases.
Gold nanoparticles of approximately 15 nm in diameter (batches NN1 and NN2 above) were mixed with an equal volume of aqueous toluidine blue O (TB) and left at room temperature for 15 minutes. TB was used at a final concentration of 1, 5, 10, 20 or 50 μM. 100 μl of the TB-gold mixture was added to 100 μl of a suspension of Staphylococcus aureus NCTC 6571 in phosphate buffered saline (PBS) (adjusted to an optical density of 0.05), and samples were irradiated with a fluorescent white light (28 W) for 10 minutes. S. aureus+TB only, and S. aureus+PBS, without photosensitiser or nanogold were used as controls. The final concentration of nanogold used was 1×10^15 particles/ml. After irradiation, the numbers of surviving bacteria were enumerated by viable counting.
The method of Example 2 was repeated using gold nanoparticles of 2 nm diameter (British Biocell International). The final concentration of nanogold used was 4×10^13 particles/ml. […]

[2] = test system: Staphylococcus aureus NCTC 6571; experiment: Lethal photosensitisation of S. aureus by TBO-tiopronin-gold nanoparticle conjugate, white light (and dark controls), viable counting; type: cell-based

Cc1cc2nc3ccc(N(C)C)cc3[s+]c2cc1N.[Cl-] [TB only, toluidine blue O]
% Kill ([1]; 10 min 28 W fluorescent white lamp, 2.0 nm gold, TB final 10 μM): 93.7%
kill of the bacterial suspension ([1]; preliminary experiments, 30 minutes light exposure): total kills
S. aureus (cfu/ml) ([1]; surviving bacteria after 10 min 28 W fluorescent white lamp, 2.0 nm gold, TB final 10 μM): 8570000 cfu/ml
effect on S. aureus ([2]; irradiated with white light for any length of time (15, 30, 45 minutes)): no effect
concentration at which significant kills of the organism were exhibited (only at this concentration) ([2]; white light 30 mins): 2.0 μm
